Assay results reported in PubChem BioAssay AID248 (DTP/NCI, 2004).
Values joined by “and” are separate entries in the source; they are usually repeats but may differ in a detail not shown here. Equal values may be shown once. Inconclusive results and toxic doses are left out. Cut-off read from the data, not from the text of the source: active = T/C of 150% or more; inactive = T/C below 125%.

Tested on: L1210 leukemia ip in BDF1 mice, survival T/C
Experiment: NCI In Vivo Anticancer Drug Screen. Data for tumor model L1210 Leukemia (intraperitoneal) in B6D2F1 (BDF1) mice
Details: endpoint: mean survival time, higher = longer survival
Method in brief: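 Each compound was tested against a transplantable tumor grown in mice. The endpoint was survival, with treated animals benchmarked against vehicle controls as a simple ratio.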

[1] = dose: 100.0 mg/kg/injection, schedule: Q01DX001 (ip), vehicle: carboxymethylcellulose (CMC)
[2] = dose: 100.0 mg/kg/injection, schedule: Q04DX003 (ip), vehicle: saline with Tween-80
[3] = dose: 200.0 mg/kg/injection, schedule: Q01DX001 (ip), vehicle: carboxymethylcellulose (CMC)
[4] = dose: 200.0 mg/kg/injection, schedule: Q04DX003 (ip), vehicle: saline with Tween-80
[5] = dose: 400.0 mg/kg/injection, schedule: Q04DX003 (ip), vehicle: saline with Tween-80
[6] = dose: 100.0 mg/kg/injection, schedule: Q01DX009 (ip), vehicle: Klucel (hydroxypropylcellulose) (HPC)
[7] = dose: 100.0 mg/kg/injection, schedule: Q04DX003 (ip), vehicle: Klucel (hydroxypropylcellulose) (HPC)
[8] = dose: 200.0 mg/kg/injection, schedule: Q01DX009 (ip), vehicle: Klucel (hydroxypropylcellulose) (HPC)
[9] = dose: 200.0 mg/kg/injection, schedule: Q04DX003 (ip), vehicle: Klucel (hydroxypropylcellulose) (HPC)
[10] = dose: 400.0 mg/kg/injection, schedule: Q01DX009 (ip), vehicle: Klucel (hydroxypropylcellulose) (HPC)
[11] = dose: 100.0 mg/kg/injection, schedule: Q04DX002 (ip), vehicle: saline with Tween-80
[12] = dose: 200.0 mg/kg/injection, schedule: Q04DX002 (ip), vehicle: saline with Tween-80
[13] = dose: 400.0 mg/kg/injection, schedule: Q04DX002 (ip), vehicle: saline with Tween-80
[14] = dose: 100.0 mg/kg/injection, schedule: Q04DX002 (ip), vehicle: Klucel (hydroxypropylcellulose) (HPC)
[15] = dose: 200.0 mg/kg/injection, schedule: Q04DX002 (ip), vehicle: Klucel (hydroxypropylcellulose) (HPC)
[16] = dose: 400.0 mg/kg/injection, schedule: Q04DX002 (ip), vehicle: Klucel (hydroxypropylcellulose) (HPC)
[17] = dose: 100.0 mg/kg/injection, schedule: Q01DX001 (ip), vehicle: Klucel (hydroxypropylcellulose) (HPC)
[18] = dose: 200.0 mg/kg/injection, schedule: Q01DX001 (ip), vehicle: Klucel (hydroxypropylcellulose) (HPC)
[19] = dose: 25.0 mg/kg/injection, schedule: Q01DX009 (ip), vehicle: water
[20] = dose: 100.0 mg/kg/injection, schedule: Q01DX001 (ip), vehicle: saline
[21] = dose: 200.0 mg/kg/injection, schedule: Q01DX001 (ip), vehicle: saline
[22] = dose: 400.0 mg/kg/injection, schedule: Q01DX001 (ip), vehicle: saline
[23] = dose: 100.0 mg/kg/injection, schedule: Q01DX009 (ip), vehicle: saline with Tween-80
[24] = dose: 50.0 mg/kg/injection, schedule: Q01DX009 (ip), vehicle: saline with Tween-80
[25] = dose: 100.0 mg/kg/injection, schedule: Q01DX009 (ip), vehicle: saline

Measured: T/C

NN1C(=O)Cc2ccccc2C1=O
inactive: [1] 102 % of control | [2] 101 % of control | [3] 93 % of control | [4] 101 % of control | dose: 400.0 mg/kg/injection, schedule: Q01DX001 (ip), vehicle: carboxymethylcellulose (CMC) 96 % of control | [5] 116 % of control

CN(C)c1ccc(/C=C2/CCCCC2=O)cc1
inactive: [6] 98 % of control | [7] 93 % of control | [8] 109 % of control | [9] 103 % of control | [10] 96 % of control | dose: 400.0 mg/kg/injection, schedule: Q04DX003 (ip), vehicle: Klucel (hydroxypropylcellulose) (HPC) 103 % of control

CCOC(=O)OCc1ccccc1
inactive: [11] 94 % of control | [12] 109 % of control | [13] 102 % of control

O=c1[nH]cnc2c1ncn2Cc1cccc2ccccc12
inactive: [14] 94 % of control | [15] 94 % of control | [16] 94 % of control

BrC1C2C3C=CC4C(C=C3)C4C12 (stereo not given)
inactive: dose: 50.0 mg/kg/injection, schedule: Q01DX001 (ip), vehicle: Klucel (hydroxypropylcellulose) (HPC) 100 % of control and 101 % of control | [17] 98 % of control and 111 % of control | [18] 108 % of control and 93 % of control

OC1(c2ccncc2)CCc2ccccc21 (stereo not given)
inactive: dose: 50.0 mg/kg/injection, schedule: Q01DX009 (ip), vehicle: Klucel (hydroxypropylcellulose) (HPC) 101 % of control | [6] 98 % of control | [7] 97 % of control | [8] 102 % of control | [9] 101 % of control

Clc1ccc(CSSCc2ccc(Cl)cc2)cc1
inactive: [14] 95 % of control | [15] 110 % of control | [16] 100 % of control

CC[C@H](/C=C/[C@@H](C)[C@H]1CC[C@H]2[C@@H]3CC=C4C[C@@H](OC(=O)/C=C\C(=O)O)CC[C@]4(C)[C@H]3CC[C@]12C)C(C)C
inactive: dose: 12.5 mg/kg/injection, schedule: Q01DX009 (ip), vehicle: water 96 % of control | [19] 86 % of control | dose: 25.0 mg/kg/injection, schedule: Q04DX003 (ip), vehicle: other 105 % of control | dose: 50.0 mg/kg/injection, schedule: Q04DX003 (ip), vehicle: other 92 % of control

O=C(O)c1ccc([N+](=O)[O-])cc1O
inactive: [1] 101 % of control | [11] 95 % of control | [3] 97 % of control | [12] 98 % of control | [13] 102 % of control

C#CC(=O)c1ccccc1
inactive: dose: 4.7 mg/kg/injection, schedule: Q01DX009 (ip), vehicle: saline with Tween-80 94 % of control | dose: 18.8 mg/kg/injection, schedule: Q01DX001 (ip), vehicle: saline 98 % of control | dose: 37.5 mg/kg/injection, schedule: Q01DX001 (ip), vehicle: saline 104 % of control

c1ccc(COC2CN3CCC2CC3)cc1 (stereo not given)
inactive: dose: 25.0 mg/kg/injection, schedule: Q04DX003 (ip), vehicle: saline with Tween-80 91 % of control | dose: 50.0 mg/kg/injection, schedule: Q04DX003 (ip), vehicle: saline with Tween-80 95 % of control | [2] 90 % of control and 91 % of control

COc1ccc(-c2oc3ccccc3c(=O)c2O)cc1OC
inactive: dose: 50.0 mg/kg/injection, schedule: Q01DX001 (ip), vehicle: saline 87 % of control | [20] 98 % of control | [21] 91 % of control | [22] 93 % of control

CC(C=O)CC1CCCCC1 (stereo not given)
inactive: [23] 97 % of control | [2] 95 % of control | dose: 200.0 mg/kg/injection, schedule: Q01DX009 (ip), vehicle: saline with Tween-80 95 % of control | [4] 97 % of control | dose: 400.0 mg/kg/injection, schedule: Q01DX009 (ip), vehicle: saline with Tween-80 95 % of control | [5] 95 % of control

CC(=O)Nc1ccc(C(=O)O)cc1
inactive: [14] 88 % of control | [15] 92 % of control | [16] 111 % of control

CC1(c2ccccc2)NC(=O)NC1=O (stereo not given)
inactive: [17] 92 % of control | [18] 95 % of control | dose: 400.0 mg/kg/injection, schedule: Q01DX001 (ip), vehicle: Klucel (hydroxypropylcellulose) (HPC) 95 % of control

O=P(O)(O)CO
inactive: dose: 100.0 mg/kg/injection, schedule: Q04DX002 (ip), vehicle: saline 97 % of control and 87 % of control | dose: 200.0 mg/kg/injection, schedule: Q04DX002 (ip), vehicle: saline 86 % of control

NC(CCC(=O)NC(CSCCC(=O)c1ccccc1)C(=O)NCC(=O)O)C(=O)O (stereo not given)
inactive: [19] 96 % of control | dose: 50.0 mg/kg/injection, schedule: Q01DX009 (ip), vehicle: water 91 % of control | dose: 100.0 mg/kg/injection, schedule: Q01DX009 (ip), vehicle: water 94 % of control | dose: 200.0 mg/kg/injection, schedule: Q01DX009 (ip), vehicle: water 92 % of control | dose: 400.0 mg/kg/injection, schedule: Q01DX009 (ip), vehicle: water 97 % of control

O=C(COc1ccc(Cl)cc1)Nc1cccc2ccccc12
inactive: [14] 87 % of control | [15] 93 % of control | [16] 101 % of control

NC(=O)CSc1cc(Cl)ccc1Cl
inactive: dose: 100.0 mg/kg/injection, schedule: Q01DX001 (ip), vehicle: other 96 % of control | dose: 200.0 mg/kg/injection, schedule: Q01DX001 (ip), vehicle: other 107 % of control | dose: 400.0 mg/kg/injection, schedule: Q01DX001 (ip), vehicle: other 113 % of control

O=C(C(=C(c1ccccc1)c1ccccc1)N1CCCCC1)c1ccccc1
inactive: [20] 96 % of control | [6] 92 % of control | [21] 97 % of control | [8] 92 % of control | [22] 97 % of control | [10] 92 % of control

COc1cc(/C=C2\C(=O)NC(=O)N(c3ccccc3)C2=O)cc(OC)c1OC
inactive: [24] 101 % of control | [23] 100 % of control

CC1(C#N)CCc2c(ccc3ccccc23)C1=O (stereo not given)
inactive: [25] 95 % of control | dose: 100.0 mg/kg/injection, schedule: Q04DX003 (ip), vehicle: saline 96 % of control | dose: 200.0 mg/kg/injection, schedule: Q01DX009 (ip), vehicle: saline 95 % of control | dose: 200.0 mg/kg/injection, schedule: Q04DX003 (ip), vehicle: saline 94 % of control | dose: 400.0 mg/kg/injection, schedule: Q04DX003 (ip), vehicle: saline 101 % of control

C=CCCCCCCCC/C=N\NC(=O)c1ccc[n+](C)c1
inactive: dose: 50.0 mg/kg/injection, schedule: Q01DX009 (ip), vehicle: saline 106 % of control | [25] 100 % of control

Cc1cccc(C2NC(=O)N3C(c4cccc(C)c4)NC(=O)N23)c1 (stereo not given)
inactive: dose: 100.0 mg/kg/injection, schedule: Q01DX009 (ip), vehicle: gum acacia 89 % of control | dose: 100.0 mg/kg/injection, schedule: Q04DX003 (ip), vehicle: gum acacia 88 % of control | dose: 200.0 mg/kg/injection, schedule: Q01DX009 (ip), vehicle: gum acacia 88 % of control | dose: 200.0 mg/kg/injection, schedule: Q04DX003 (ip), vehicle: gum acacia 93 % of control | dose: 400.0 mg/kg/injection, schedule: Q04DX003 (ip), vehicle: gum acacia 90 % of control

NC(=O)C[CH2][Sn]([c]1ccccc1)([c]1ccccc1)[c]1ccccc1
inactive: [24] 101 % of control | [23] 112 % of control
